{
  "source": "patent EP1147767A1",
  "about": "(J.B. Chemicals & Pharmaceuticals Ltd., priority 2000, dated 2001)",
  "origin": "cited, not measured here",
  "key": {"[1]": {"conditions": "200 mg twice daily; Pierleoni et al. 1993"}, "[2]": {"conditions": "200 mg twice daily, granular formulation; versus naproxen 500 mg twice daily; Toscani et al. 1993"}, "[3]": {"conditions": "200 mg/day; respiratory tract infections, ENT disorders, dysmenorrhoea, dental surgery, urogenital tract disorders, musculoskeletal injuries"}, "[4]": {"conditions": "200mg 3 times daily, rectally; Ramella et al. 1993"}, "[5]": {"conditions": "animal model; comparison with other NSAIDs"}, "[6]": {"conditions": "200 mg twice daily, rectally; Coscarelli et al. 1993"}, "[7]": {"conditions": "rats; comparison with other drugs"}},
  "data": [
    {"smiles": "CS(=O)(=O)Nc1ccc([N+](=O)[O-])cc1Oc1ccccc1", "note": "[Nimesulide, 4'-Nitro-2'-phenoxymethanesulphonanilide]", "values": [
      {"measurement": "relief", "setting": "[1]", "result": "gave relief"},
      {"measurement": "analgesic efficacy (pain)", "setting": "[2]", "result": "similarly reduced pain with naproxen 500 mg twice daily"},
      {"measurement": "reducing clinical symptoms", "setting": "[3]", "result": "generally more effective than the usual therapeutic doses of naproxen, ibuprofen, ketoprofen mefenamic acid and suprofen"},
      {"measurement": "adverse reaction", "setting": "[4]", "result": "no adverse reaction"},
      {"measurement": "pain, oedema, hyperaemia and fever", "setting": "[4]", "result": "significantly less pain, oedema and hyperaemia and resolution of mild fever"},
      {"measurement": "ulcerogenic", "setting": "[5]", "result": "less ulcerogenic than aspirin, indomethacin, naproxen, piroxicam and ibuprofen"},
      {"measurement": "relief of pain", "setting": "[6]", "result": "gave relief in the pain associated with postoperative inflammatory complications of ear, nose and throat surgery"},
      {"measurement": "antipyretic potency", "setting": "[7]", "result": "superior antipyretic potency to indomethacin, ibuprofen, aspirin and paracetamol"}
    ]}
  ]
}
